# Assay results reported in PMC10661964 (Current Drug Metabolism, 2023).
# Legend:
# [1] = human, estimation accounting for GFR, fu (57.6%), and AUC
# [2] = Procedure: One aliquot of a pooled urine sample taken at 0.25 h post-dose was analyzed immediately using HPLC-LSC. Further aliquots were analyzed after storage for 24 h at room temperature. […] After incubation for 22.5 h at 37°C with shaking, incubations were terminated by the addition of acetonitrile, then extracted (three times with 2 mL acetonitrile for 30 min) and centrifuged (1726 g, 3 min). The combined supernatant was analyzed directly using HPLC-LSC.
# in vitro = conditions: rat, plasma
structure (smiles),measurement,setting,value
"CC1CS(=O)(=O)CCN1/N=C/c1ccc([N+](=O)[O-])o1 (centres unmarked) [Nifurtimox, (E)-N-(3-methyl-1,1-dioxo-1,4-thiazinan-4-yl)-1-(5-nitrofuran-2-yl) methanimine, reference compound]",dose expected to be excreted unchanged in urine,[1],approximately 10%
same,stability in aqueous control without feces,"[2]; 8.8 µM, 37°C, 22.5 h, anaerobic, data not shown",no degradation
same,stability in rat feces,"[2]; 8.8 µM, aqueous suspension of fresh rat feces, 37°C, 22.5 h, anaerobic",unstable in rat feces
same,stability in rat urine,[2]; pooled 0.25 h post-dose urine reanalyzed after storage at room temperature for 24 h,undetectable
same,fraction unbound,in vitro,0.621
